Test results published in patent publication US20190187129A1, “CANCER MODELING PLATFORMS AND METHODS OF USING THE SAME” (Wake Forest University Health Sciences, priority 2016, published 2019).

Tests used:
Format in all cases: cell-based
HCT116 cells = assay: cells; settings: Homo sapiens, HCT-116, read-out: relative cellular viability (MTS, relative to control)
Method: (§1) Cancer cells seeded directly into wells were given 4-5 hours to reattach to the bottom of the wells. After that time, the anticancer drug solutions were administered in place of the media (FIG. 6, panel A) and an MTS assay was carried out 2 days later to determine cell viability. […] At 100 μM concentrations of Regorafenib and Sorafenib, and 100 mM concentrations of 5-FU, cellular viability remained below 20% that of the control for all four of the colorectal cancer cell lines utilized. However, screening with Dabrafenib and Trametinib produced diverging results from the other three anticancer drugs at higher concentrations. […] When treated with 1 mM concentrations of 5-FU, relative cellular viability was approximately 39% for SW480 cells and remained between 10%-22% for the HCT116, HT29, and CACO2 cells. These values were considerably lower than the relative cellular viability values for the lowest concentrations of the other anticancer drugs.
(§2) Cell Seeding: The original 15 mL centrifuge tubes containing the 10 mL of DMEM-10, cells, and trypsin were placed into a centrifuge. The centrifugation setting was 1500 RPM and at maximal acceleration for 5 minutes. After that time, the media and trypsin mixture was aspirated from the tubes, leaving the cell pellets still intact. 5 mL of DMEM-10 was then pipetted into each of the tubes, resuspending the cells in the process. Calculated volumes of the 5 mL cell-media solution were determined to ensure that 25,000 cells of each of the four colorectal cancer cell lines were seeded directly into each of the wells of a polystyrene clear-bottom 96-well plate. 100 μL of DMEM-10 media was then pipetted directly into the wells. The 96-well plates were incubated at 37° C. and 5% CO2 for 5 hours to allow the cells to reattach themselves to the bottom of the wells until media was aspirated and anticancer drug solutions were added.
(§3) Addition of Anticancer Drugs for Screening: The anticolorectal cancer drugs used in this screening included 5-FU, Regorafenib, Sorafenib, Trametinib, and Dabrafenib (Sigma-Aldrich, Missouri, USA)). High concentration drug stock solutions were created with DMSO. Lower concentration drug solutions were created by mixing the anticancer drug stocks with DMEM-10 media. […] drug solutions were generated for 5-FU; 1 μM, 10 μM, and 100 μM drug solutions were generated for Regorafenib, Sorafenib, and Dabrafenib; and 1 nM, 10 nM, and 100 nM drug solutions were generated for Trametinib. Media was carefully aspirated from the wells and 200 μL of the various drug-media solutions were placed into the wells containing cells. Three duplicates were generated for each anticancer drug concentration with each of the different cell types to calculate averages and run statistics on the data generated. Well plates were then incubated at 37° C. and 5% CO2 for […].
(§4) Cell viability assay: Cell viability was determined 48 hours after exposure to the anticancer drug solutions. The viability of the cells was examined by the CellTiter 96® AQueous One Solution Cell Proliferation (MTS) assay (Promega, Wisconsin, USA). The anticancer drug-media solutions were aspirated from the wells and 200 μL of the MTS reagent was carefully pipetted into the wells. The incubation time for the cells with the MTS reagent was approximately 45 minutes. The cell viability assay was performed on another 96-well plate and the absorbance was quantified by the EnVision Multilabel Plate Reader (PerkinElmer, California, USA).

HT29 cells = assay: cells; settings: Homo sapiens, HT-29, read-out: relative cellular viability (MTS, relative to control)
Method: as §1, §2, §3, §4

[1] = tested on: Ring constructs made with a Caco2 outer ring and a SW480 core; assay: Concentric ring construct drug treatment (MTS assay, LIVE/DEAD staining)
Excerpt: The first objective of this project was to evaluate a 3D model of a colorectal cancer tumor surrounded by normal host tissue. The engineered concentric ring construct consists of a colorectal tumor core and a colon epithelial outer ring, to model a tumor in a reductionist, yet physiologically relevant environment. This construct was used to measure the growth of the tumor core, any observed invasion of the tumor cells into the epithelial layer, and the efficacy of drugs. The constructs were created with cells suspended in a hyaluronic acid and gelatin-based hydrogel. The tumor cores were made using one of four colorectal cancer cells types, thereby providing models of 4 levels of malignancy. The HCT116 cells were the most malignant, followed by the HT29, SW480, and Caco2 cells. Caco2 cells were also employed in the outer ring, as they best resemble healthy epithelial cells. The tumor core was fluorescently labeled and fluorescent imaging was used to monitor the tumor core over the course of 7-14 days. […] Ring constructs made with a Caco2 outer ring and a SW480 core were also treated with Regorafenib, a chemotherapy agent.

CNC(=O)c1cc(Oc2ccc(NC(=O)Nc3ccc(Cl)c(C(F)(F)F)c3)c(F)c2)ccn1 [Regorafenib]
viability at 100 µM (HCT116 cells): < 20% | viability at 100 µM (HT29 cells): < 20% | cells targeted within the ring construct (LIVE/DEAD staining) ([1]; inner ring versus outer Caco2 cells): selectively targeted the inner ring of the construct | amount of viable cells after treatment (MTS assay) ([1]; ring construct, Caco2 outer ring, SW480 core): decrease in the amount of viable cells
